Source: ChEMBL document CHEMBL5724914, “Linking interpersonal differences in gut microbiota composition and drug biotransformation activity” (2024)

Columns and labels:
[1] = human gut metagenome, 24 h, 2 µM
[2] = The drug is tested on Z-020 corresponding to rabbit gut metagenome with ENA study accession number: PRJEB37062 and ENA sample accession number: ERS12561819 for biotransformation under anaerobic condition. The drug concentrations were measured over 9 timepoints collected between 0 and 24 hours of incubation by liquid-chromatography-coupled mass spectrometry (LC–MS); conditions: 2 µM
[3] = The drug is tested on Z-018 corresponding to pig gut metagenome with ENA study accession number: PRJEB37062 and ENA sample accession number: ERS12561817 for biotransformation under anaerobic condition. The drug concentrations were measured over 9 timepoints collected between 0 and 24 hours of incubation by liquid-chromatography-coupled mass spectrometry (LC–MS); conditions: 2 µM
[4] = The drug is tested on WLS-098 corresponding to human gut metagenome with ENA study accession number: PRJEB37062 and ENA sample accession number: ERS12561754 for biotransformation under anaerobic condition. The drug concentrations were measured over 9 timepoints collected between 0 and 24 hours of incubation by liquid-chromatography-coupled mass spectrometry (LC–MS); conditions: 2 µM
[5] = human gut metagenome, 24 h, 2 µM; remark: listed apart in the source
[6] = The drug is tested on Z-019 corresponding to rat gut metagenome with ENA study accession number: PRJEB37062 and ENA sample accession number: ERS12561818 for biotransformation under anaerobic condition. The drug concentrations were measured over 9 timepoints collected between 0 and 24 hours of incubation by liquid-chromatography-coupled mass spectrometry (LC–MS); conditions: 2 µM
[7] = The drug is tested on WLS-039 corresponding to human gut metagenome with ENA study accession number: PRJEB37062 and ENA sample accession number: ERS12561746 for biotransformation under anaerobic condition. The drug concentrations were measured over 9 timepoints collected between 0 and 24 hours of incubation by liquid-chromatography-coupled mass spectrometry (LC–MS); conditions: 2 µM
[8] = human gut metagenome, 24 h, 2 µM; remark: listed apart in the source
[9] = The drug is tested on WLS-310 corresponding to human gut metagenome with ENA study accession number: PRJEB37062 and ENA sample accession number: ERS12561785 for biotransformation under anaerobic condition. The drug concentrations were measured over 9 timepoints collected between 0 and 24 hours of incubation by liquid-chromatography-coupled mass spectrometry (LC–MS); conditions: 2 µM
[10] = The drug is tested on Z-028 corresponding to mouse gut metagenome with ENA study accession number: PRJEB37062 and ENA sample accession number: ERS12561827 for biotransformation under anaerobic condition. The drug concentrations were measured over 9 timepoints collected between 0 and 24 hours of incubation by liquid-chromatography-coupled mass spectrometry (LC–MS); conditions: 2 µM
[11] = The drug is tested on WLS-073 corresponding to human gut metagenome with ENA study accession number: PRJEB37062 and ENA sample accession number: ERS12561749 for biotransformation under anaerobic condition. The drug concentrations were measured over 9 timepoints collected between 0 and 24 hours of incubation by liquid-chromatography-coupled mass spectrometry (LC–MS); conditions: 2 µM
[12] = human gut metagenome, 24 h, 2 µM; remark: listed apart in the source
[13] = The drug is tested on Z-022 corresponding to mouse gut metagenome with ENA study accession number: PRJEB37062 and ENA sample accession number: ERS12561821 for biotransformation under anaerobic condition. The drug concentrations were measured over 9 timepoints collected between 0 and 24 hours of incubation by liquid-chromatography-coupled mass spectrometry (LC–MS); conditions: 2 µM
[14] = The drug is tested on WLS-006 corresponding to human gut metagenome with ENA study accession number: PRJEB37062 and ENA sample accession number: ERS12561741 for biotransformation under anaerobic condition. The drug concentrations were measured over 9 timepoints collected between 0 and 24 hours of incubation by liquid-chromatography-coupled mass spectrometry (LC–MS); conditions: 2 µM
[15] = The drug is tested on WLS-038 corresponding to human gut metagenome with ENA study accession number: PRJEB37062 and ENA sample accession number: ERS12561745 for biotransformation under anaerobic condition. The drug concentrations were measured over 9 timepoints collected between 0 and 24 hours of incubation by liquid-chromatography-coupled mass spectrometry (LC–MS); conditions: 2 µM
[16] = The drug is tested on Z-029 corresponding to rat gut metagenome with ENA study accession number: PRJEB37062 and ENA sample accession number: ERS12561828 for biotransformation under anaerobic condition. The drug concentrations were measured over 9 timepoints collected between 0 and 24 hours of incubation by liquid-chromatography-coupled mass spectrometry (LC–MS); conditions: 2 µM
[17] = human gut metagenome, 24 h, 2 µM; remark: listed apart in the source
[18] = The drug is tested on WLS-069 corresponding to human gut metagenome with ENA study accession number: PRJEB37062 and ENA sample accession number: ERS12561748 for biotransformation under anaerobic condition. The drug concentrations were measured over 9 timepoints collected between 0 and 24 hours of incubation by liquid-chromatography-coupled mass spectrometry (LC–MS); conditions: 2 µM
[19] = The drug is tested on Z-008 corresponding to metagenome with ENA study accession number: PRJEB37062 and ENA sample accession number: ERS12561808 for biotransformation under anaerobic condition. The drug concentrations were measured over 9 timepoints collected between 0 and 24 hours of incubation by liquid-chromatography-coupled mass spectrometry (LC–MS); conditions: 2 µM
[20] = human gut metagenome, 24 h, 2 µM; remark: listed apart in the source
Further: call rule not given here.

| SMILES | Bacterial Biotransformation [1] | Bacterial Biotransformation [2] | Bacterial Biotransformation [3] | Bacterial Biotransformation [4] | Bacterial Biotransformation [5] | Bacterial Biotransformation [6] | Bacterial Biotransformation [7] | Bacterial Biotransformation [8] | Bacterial Biotransformation [9] | Bacterial Biotransformation [10] | Bacterial Biotransformation [11] | Bacterial Biotransformation [12] | Bacterial Biotransformation [13] | Bacterial Biotransformation [14] | Bacterial Biotransformation [15] | Bacterial Biotransformation [16] | Bacterial Biotransformation [17] | Bacterial Biotransformation [18] | Bacterial Biotransformation [19] | Bacterial Biotransformation [20] |
| --- | --- | --- | --- | --- | --- | --- | --- | --- | --- | --- | --- | --- | --- | --- | --- | --- | --- | --- | --- | --- |
| CN(C)C(=O)Oc1cc(OC(=O)N(C)C)cc(C(O)CNC(C)(C)C)c1 (stereo not given) [BAMBUTEROL] | Compound NOT metabolized | Compound NOT metabolized | Compound NOT metabolized | Compound metabolized | Compound NOT metabolized | Compound NOT metabolized | Compound NOT metabolized | Compound metabolized | Compound metabolized | Compound NOT metabolized | Compound NOT metabolized | Compound NOT metabolized | Compound metabolized | Compound metabolized | Compound NOT metabolized | Compound NOT metabolized | Compound NOT metabolized | Compound NOT metabolized | Compound NOT metabolized | Compound NOT metabolized |
| CC(NC(C)(C)C)C(=O)c1cccc(Cl)c1 (stereo not given) [BUPROPION] | Compound metabolized | Compound NOT metabolized | Compound metabolized | Compound NOT metabolized | Compound NOT metabolized | Compound NOT metabolized | Compound NOT metabolized | Compound NOT metabolized | Compound NOT metabolized | Compound NOT metabolized | Compound NOT metabolized | Compound NOT metabolized | Compound NOT metabolized | Compound metabolized | Compound NOT metabolized | Compound NOT metabolized | Compound NOT metabolized | Compound NOT metabolized | Compound NOT metabolized | Compound metabolized |
| O=C1CC2(CCCC2)CC(=O)N1CCCCN1CCN(c2ncccn2)CC1 [BUSPIRONE] | Compound metabolized | Compound NOT metabolized | Compound NOT metabolized | Compound metabolized | Compound metabolized | Compound NOT metabolized | Compound NOT metabolized | Compound metabolized | Compound metabolized | Compound NOT metabolized | Compound NOT metabolized | Compound metabolized | Compound NOT metabolized | Compound NOT metabolized | Compound NOT metabolized | Compound NOT metabolized | Compound metabolized | Compound metabolized | Compound NOT metabolized | Compound metabolized |
| CCCC(C)(COC(N)=O)COC(=O)NC(C)C (stereo not given) [CARISOPRODOL] | Compound metabolized | Compound metabolized | Compound metabolized | Compound metabolized | Compound metabolized | Compound NOT metabolized | Compound metabolized | Compound metabolized | Compound NOT metabolized | Compound metabolized | Compound metabolized | Compound metabolized | Compound metabolized | Compound metabolized | Compound metabolized | Compound NOT metabolized | Compound metabolized | Compound metabolized | Compound metabolized | Compound metabolized |
| COc1ccccc1OCCNCC(O)COc1cccc2[nH]c3ccccc3c12 (stereo not given) [CARVEDILOL] | Compound metabolized | Compound NOT metabolized | Compound NOT metabolized | Compound metabolized | Compound NOT metabolized | Compound NOT metabolized | Compound metabolized | Compound NOT metabolized | Compound metabolized | Compound NOT metabolized | Compound metabolized | Compound metabolized | Compound NOT metabolized | Compound metabolized | Compound metabolized | Compound NOT metabolized | Compound NOT metabolized | Compound metabolized | Compound NOT metabolized | Compound metabolized |
